Earlier results, collected in patent US6681132B1, “Sodium magnetic reasonance imaging used in diagnosing tumors and assessing response to treatment” (The Trustees of Columbia University in the City of New York, priority 1999, dated 2004).

System: L cells
Details: K+ loss exceeds Na+ gain; cited from earlier work

O=C(O)c1nn(Cc2ccc(Cl)cc2Cl)c2ccccc12 [lonidamine]
effect on total cellular monovalent cations: net reduction
